“Also recorded” adds a separate entry of the source.
Each substance was assayed on NCI-60 cell lines.
Type: cell-based, human

Row | Substance | Cell Line with which the peptide (and its tripeptide motif) is associated | Cell Line (NCI-60 cell line the peptide and its motif are associated with) | Cell Line the peptide is associated with (peptide recovered from phage library selection on this NCI-60 cell line) | Cell Line (NCI-60 cell line the peptide is associated with)
1 | GLVRGTA | Molt-4-Leukemia | – | – | –
2 | NWDARGR | – | M14 Melanoma | – | –
3 | CRRSSLL | – | SK-MEL-2 Melanoma | – | –
4 | KAASTED | – | – | SN12C Renal | –
5 | GLGRSVN | – | – | T-47D Breast | –
6 | LLSTSIR | RPMI-8226-Leukemia | – | – | –
7 | VTGGRVD | A549-Lung | – | – | –
8 | HSESAAV | Hop-62-Lung | – | – | –
9 | NMGRGSL | – | – | ACHN Renal | –
10 | LRSMAVM | – | – | ACHN Renal | –
11 | LLRSHGV | – | – | – | SF-295 CNS
12 | HTRAVSE | – | OVCAR-8 Ovarian | – | –
13 | RGGLPRG | – | – | – | HCT-15 Colon
14 | SYWVGSS | – | – | MCF-7 Breast | –
15 | CTAGSVS | – | IGROV1 Ovarian | – | –
16 | FFPAGGP | EKVX-Lung | – | – | –
17 | EGVRGVF | – | A498 Renal | A498 Renal | –
18 | TDGVRAF | – | UACC 257 Melanoma | – | –
19 | VGSTRSS | – | SK-MEL-28 Melanoma | – | –
20 | SSLLSSL | – | SK-MEL-2 Melanoma | – | –
21 | LQHLGSG | – | OVCAR-8 Ovarian | – | –
22 | GRVPGFE | H322-Lung | – | – | –
23 | WFKGPSV | – | – | – | SF-268 CNS

Row | Substance | Cell Line with which the peptide (and its tripeptide motif) is associated | Cell Line (NCI-60 cell line the peptide and its motif are associated with) | Cell Line the peptide is associated with (peptide recovered from phage library selection on this NCI-60 cell line) | Cell Line (NCI-60 cell line the peptide is associated with)
24 | FGLRSRL | SR Leukemia | – | – | –
25 | RSSPVWT | – | – | – | SW620-Colon
26 | WWAAVPG | – | – | SN12C Renal | –
27 | MLGRGSV | – | – | SN12C Renal | –
28 | VLVEGAV | – | – | TK-10 Renal | –
29 | RRDAGRM | – | – | – | SF-295 CNS
30 | CGAVAEW | – | PC3 Prostate | – | –
31 | GSSRPSI | – | – | – | HCT-15 Colon
32 | RDLAGPS | – | OVCAR-4 Ovarian | – | –
33 | GRGLRTD | – | – | – | SF-295 CNS
34 | VRASSKR | – | OVCAR-5 Ovarian | – | –
35 | GGMNGRL | – | – | – | HT-29 Colon
36 | GAGRGTP | – | – | – | HT-29 Colon
37 | VSGSGTA | – | PC3 Prostate | – | –
38 | PPPWGLR | K-562-Leukemia | – | – | –
39 | MYLRLLR | – | – | – | HCT-116 Colon
40 | RQDGGLY | – | PC3 Prostate | – | –
41 | AGGTDRT | – | – | MDA-MB-231 Breast | –
42 | AVGRGSG | Hop-92-Lung | – | – | –
43 | DLDGRVV | – | – | – | COLO-205-Colon
44 | MSARGIL | – | SK-OV-3-3 Ovarian | – | –
45 | GSGQLIP | – | M14 Melanoma | – | –
46 | RAGSRYI | – | SK-MEL-28 Melanoma | – | –

Row | Substance | Cell Line with which the peptide (and its tripeptide motif) is associated | Cell Line (NCI-60 cell line the peptide and its motif are associated with) | Cell Line the peptide is associated with (peptide recovered from phage library selection on this NCI-60 cell line) | Cell Line (NCI-60 cell line the peptide is associated with)
47 | LARGVPP | – | M14 Melanoma | – | –
48 | ESATGVS | – | – | MDA-MB-231 Breast | –
49 | AGRRLRD | – | – | NCI/ADR-RES Breast | –
50 | DWVCRAS | – | – | – | HT-29 Colon
51 | RSSSGSG | – | – | TK-10 Renal | –
52 | RLSMASR | – | – | ACHN Renal | –
53 | LQGSGAY | – | OVCAR-8 Ovarian | – | –
54 | RSWNAGR | – | – | UO31 Renal | –
55 | AASGSYY | – | – | – | HT-29 Colon
56 | ARSSIVR | – | – | – | SF-268 CNS
57 | HGLVTHN | – | – | – | MALME-3M Melanoma
58 | FVDIAGS | H23-Lung | – | – | –
59 | SVSRGRV | – | – | A498 Renal | –
60 | RLRLSSW | – | – | TK-10 Renal | –
61 | WQVALRS | – | – | – | HT-29 Colon
62 | YADGAAV | – | – | – | SF-295 CNS
63 | SRLSYWQ | – | – | – | LOX-IMVI Melanoma
64 | AGRPRAT | – | – | – | HCT-116 Colon
65 | GEHGLGA | H23-Lung | – | – | –
66 | RGVVSGV | Hop-92-Lung | – | – | –
67 | DGGSLVV | – | – | – | LOX-IMVI Melanoma
68 | ARRGLGL | – | – | – | SNB-75 CNS
69 | GSLGVSL | H226-Lung | – | – | –

Row | Substance | Cell Line with which the peptide (and its tripeptide motif) is associated | Cell Line (NCI-60 cell line the peptide and its motif are associated with) | Cell Line the peptide is associated with (peptide recovered from phage library selection on this NCI-60 cell line) | Cell Line (NCI-60 cell line the peptide is associated with)
70 | SGVSGLS | EKVX-Lung | – | – | –
71 | NCYSLRS | – | OVCAR-4 Ovarian | – | –
72 | GVRGAAR | – | – | – | HCT-15 Colon
73 | GLMRLSH | – | UACC62 Melanoma | – | –
74 | SSRGGSS | – | – | – | MALME-3M Melanoma
75 | ALNRGSR | – | – | MDA-MB-231 Breast | –
76 | GRLAKSI | – | UACC 257 Melanoma | – | –
77 | THRNRSS | SR Leukemia | – | – | –
78 | RWAGLVA | – | – | – | SF-295 CNS
79 | HRGGSQS | Molt-4-Leukemia | – | – | –
80 | ALARGSG | – | SK-MEL-2 Melanoma | – | –
81 | NSGSVVS | – | – | MDA-MB-231 Breast | –
82 | AASPHPG | – | – | T-47D Breast | –
83 | AVWRLSH | H322-Lung | – | – | –
84 | AGSQSWE | A549-Lung | – | – | –
85 | EGSGVDC | RPMI-8226-Leukemia | – | – | –
86 | RSSLGLP | H226-Lung | – | – | –
87 | PPGASLY | – | M14 Melanoma | – | –
88 | VPPSGGR | – | – | RXF393 Renal | –
89 | GRVRETP | – | UACC62 Melanoma | – | –
90 | GRLSRAP | – | OVCAR-4 Ovarian | – | –
91 | LVRSSGL | Hop-92-Lung | – | – | –
92 | GVGGLSS | – | – | HS 578 T Breast | –

Row | Substance | Cell Line with which the peptide (and its tripeptide motif) is associated | Cell Line (NCI-60 cell line the peptide and its motif are associated with) | Cell Line the peptide is associated with (peptide recovered from phage library selection on this NCI-60 cell line) | Cell Line (NCI-60 cell line the peptide is associated with)
93 | AGGGPPA | EKVX-Lung | – | – | –
94 | RRLSSIA | – | – | TK-10 Renal | –
95 | GFGRLLW | – | – | A498 Renal | –
96 | FGRLLSP | – | UACC62 Melanoma | – | –
97 | VAGRVGI | – | MALME-3M Melanoma | – | MALME-3M Melanoma
98 | AEDSGGR | – | – | BT-549 Breast | –
99 | IAASYRG | – | – | – | LOX-IMVI Melanoma
100 | VGRGRLH | EKVX-Lung | – | – | –
101 | GGSGELG | H23-Lung | – | – | –
102 | LRVDQLY | – | UACC62 Melanoma | – | –
103 | LGGRADF | CCRF-CEM Leukemia | – | – | –
104 | ASGRVAN | – | – | – | HCT-116 Colon
105 | RNPGRLA | – | – | – | HT-29 Colon
106 | GLRRDNG | – | OVCAR-3 Ovarian | – | –
107 | GKALRGV | Hop-62-Lung | – | – | –
108 | GRVTWRS | – | OVCAR-5 Ovarian | – | –
109 | GSSHDAL | – | – | – | SNB-19 CNS; also recorded: SF-539 CNS
110 | EGSVDAH | – | – | – | SW620-Colon
111 | TWSTGGR | – | – | – | LOX-IMVI Melanoma
112 | AGDSRLS | – | – | – | HCT-15 Colon
113 | LGGLGIH | – | – | – | SF-295 CNS
